Several values for one entry are separate records, joined by “and”; a condition that tells them apart may be missing. Equal values may be shown once. Read-outs that look alike come from different tables or passages of the source.
Legend:
[1] = target: T1, mDOR (Mus musculus, UniProt P32300); assay: [35S]GTPγS functional assay, CHO membranes; assay type: biochemical; conditions: for mDOR Emax: relative to DPDPE at 1000 nM
[2] = target: mouse kappa opioid receptor (mKOR) (Mus musculus, UniProt P33534); assay: Competition binding against 125I-IBNtxA, CHO cell membranes
[3] = target: mMOR (Mus musculus, UniProt P42866); assay: [35S]GTPγS functional assay, CHO membranes; assay type: biochemical; conditions: for mMOR Emax: relative to DAMGO at 1000 nM
[4] = target: mouse mu opioid receptor (mMOR) (Mus musculus, UniProt P42866); assay: Competition binding against 125I-IBNtxA, CHO cell membranes; conditions: for Ki: 125I-IBNtxA (0.1 nM), CHO membranes
[5] = target: T1, mDOR; assay: as above
[6] = target: mKOR (Mus musculus, UniProt P33534); assay: [35S]GTPγS functional assay, CHO membranes; assay type: biochemical; conditions: for mKOR Emax: relative to U50,488H at 1000 nM
[7] = target: T2, hMOR (Homo sapiens, UniProt P35372); assay type: cell-based
[8] = tested on: C57BL/6J mice; assay: 55 °C warm-water tail-withdrawal assay; assay type: in vivo, mouse; conditions: for antinociception ED50 (and 95% C.I.): WT C57BL/6J mice, from peak effect
[9] = target: human kappa opioid receptor (hKOR) (Homo sapiens, UniProt P41145); assay: BRET Gi-1 activation, HEK293T cells; assay type: cell-based; conditions: for pEC50 ± SEM Gi-1 activation hKOR / EC50: BRET; for EC50: read-out: EC50 Gi-1 activation hKOR
[10] = target: T2, hMOR; assay: NIMH-PDSP radioligand binding; conditions: read-out: affinity Ki hMOR
[11] = target: hDAT (Homo sapiens, UniProt Q01959); assay: NIMH-PDSP radioligand binding; conditions: read-out: affinity Ki hDAT
[12] = target: T3, hKOR (Homo sapiens, UniProt P41145); assay: BRET βarrestin-2 recruitment, HEK293T cells; assay type: cell-based; conditions: for pEC50 ± SEM βarrestin-2 recruitment hKOR / EC50: BRET; for EC50: read-out: EC50 βarrestin-2 recruitment hKOR
[13] = target: T2, hMOR; assay: BRET βarrestin-2 recruitment, HEK293T cells; assay type: cell-based
[14] = target: T4, hα2A (Homo sapiens, UniProt P08913); assay: NIMH-PDSP radioligand binding; conditions: read-out: affinity Ki hα2A
T4 sequence (P08913 1-465): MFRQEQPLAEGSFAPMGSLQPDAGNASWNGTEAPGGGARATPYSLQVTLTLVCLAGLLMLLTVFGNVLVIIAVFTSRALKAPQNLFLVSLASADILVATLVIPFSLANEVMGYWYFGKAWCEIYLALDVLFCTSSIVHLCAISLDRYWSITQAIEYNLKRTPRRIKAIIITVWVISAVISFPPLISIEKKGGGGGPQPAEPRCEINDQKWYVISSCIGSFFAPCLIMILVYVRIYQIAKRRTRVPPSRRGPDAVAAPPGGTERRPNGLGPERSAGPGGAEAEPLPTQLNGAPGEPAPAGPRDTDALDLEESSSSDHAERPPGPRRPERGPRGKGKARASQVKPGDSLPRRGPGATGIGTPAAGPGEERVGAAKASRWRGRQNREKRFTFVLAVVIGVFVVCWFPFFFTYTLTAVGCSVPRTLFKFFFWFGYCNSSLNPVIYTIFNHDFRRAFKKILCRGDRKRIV

[15] = target: T5, hDOR (Homo sapiens, UniProt P41143); assay: BRET βarrestin-2 recruitment, HEK293T cells; assay type: cell-based; conditions: for Emax% ± SEM βarrestin-2 recruitment hDOR: normalized to DPDPE
[16] = target: hSERT (Homo sapiens, UniProt P31645); assay: NIMH-PDSP radioligand binding; conditions: read-out: affinity Ki hSERT
[17] = target: hH1 (Homo sapiens, UniProt P35367); assay: NIMH-PDSP radioligand binding; conditions: read-out: affinity Ki hH1
[18] = target: T2, hMOR; assay type: cell-based; remark: listed apart in the source
[19] = target: T3, hKOR; assay: NIMH-PDSP radioligand binding; conditions: read-out: affinity Ki hKOR
[20] = target: human mu opioid receptor (hMOR) (Homo sapiens, UniProt P35372); assay: cell-based; assay type: cell-based
[21] = target: T5, hDOR; assay: BRET Gi-1 activation, HEK293T cells; assay type: cell-based; conditions: for Emax% ± SEM Gi-1 activation hDOR: normalized to control agonist (DPDPE; SNC80 in Figure 6G)
[22] = target: hNMDA; assay: NIMH-PDSP radioligand binding; design: species or system human; conditions: read-out: affinity Ki hNMDA
[23] = tested on: MOR; conditions: ex vivo; cited from earlier work
[24] = tested on: C57BL/6J mice; assay: CLAMS locomotor activity; assay type: in vivo, mouse; conditions: 100 nmol, i.c.v., 180 min, versus vehicle
[25] = tested on: C57BL/6J mice; assay: CLAMS breathing rate; assay type: in vivo, mouse; conditions: 100 nmol, i.c.v., 180 min, versus vehicle
[26] = target: hNET (Homo sapiens, UniProt P23975); assay: NIMH-PDSP radioligand binding; conditions: read-out: affinity Ki hNET
[27] = target: hMOR; conditions: read-out: binding affinity at hMOR; cited from earlier work
[28] = affinity (Ki) mKOR, 125I-IBNtxA (0.1 nM)
[29] = affinity (Ki) mDOR, 125I-IBNtxA (0.1 nM)
[30] = i.c.v., MOR KO / KOR KO mice versus WT

Row | Compound | mDOR Emax [1] | Ki [2, 28] [µM] | mMOR Emax [3] | Ki ([4]; affinity (Ki) mMOR) | Ki [5, 29] [µM] | mKOR Emax [6] | receptor dependence of antinociception [8, 30] | pEC50 ± SEM Gi-1 activation hKOR [9] | Emax% ± SEM Gi-1 activation hKOR ([9]; normalized to U50,488H) [%] | EC50 [9] [µM] | pEC50 ± SEM βarrestin-2 recruitment hKOR [12] | Emax% ± SEM βarrestin-2 recruitment hKOR ([12]; normalized to U50,488H) [%] | EC50 [12] [µM] | Ki [14] [µM] | Emax% ± SEM βarrestin-2 recruitment hDOR [15] [%] | Ki [19] [µM] | Emax% ± SEM Gi-1 activation hMOR [20] | Emax% ± SEM Gi-1 activation hDOR [21] [%] | locomotor effect [24] | effect on breath rate [25] | also measured
1 | CC[C@@H]1CN2CC[C@]3(C(=O)Nc4ccccc43)[C@@H]2C[C@@H]1/C(=C\OC)C(=O)OC [corynoxine B] | no activity | > 1 | no activity | 5.01 ± 0.388 µM | 1.68 ± 0.261 | no activity | – | – | – | – | – | – | – | – | – | – | – | – | – | – | Ki ([2]; affinity (Ki) mKOR, 125I-IBNtxA (0.1 nM), μM): > 10 µM
2 | C=C[C@H]1CN2CCc3c([nH]c4cccc(OC)c34)[C@H]2C[C@@H]1/C(=C\OC)C(=O)OC [isopaynantheine] | no activity | – | 50 ± 5% | – | – | 93.5 ± 5% | MOR independent and KOR dependent | 6.25 ± 0.066 | 80 | 0.56 | 6.22 ± 0.43 | < 20 | 0.599 | 2.15 | < 20 | 0.027 | < 20% | < 20 | – | – | Emax% ± SEM Gi-1 antagonism at MOR [7]: 156.91 ± 13.49%; Emax% ± SEM Gi-1 activation hKOR ([9]; normalized to U50,488H, listed as Isopaynantheine): 80.5 ± 2.9%; Ki ([2]; read-out: affinity (Ki) mKOR, 125I-IBNtxA (0.1 nM)): 0.325 µM and 0.326 µM; Ki [10]: 0.122 µM; EC50 ([3]; read-out: mMOR EC50, [35S]GTPγS): 0.192 ± 0.0058 µM; Ki ([4]; read-out: affinity (Ki) mMOR): 0.0918 ± 0.0058 µM; Ki [11]: 5.07 µM; Emax% ± SEM βarrestin-2 recruitment hMOR ([13]; normalized to DAMGO): < 20%; Ki [16]: 5.11 µM; Ki [17]: 0.206 µM; Emax% ± SEM βarrestin-2 antagonism at MOR [18]: 106 ± 8.67%; Ki ([5]; read-out: affinity (Ki) mDOR, 125I-IBNtxA (0.1 nM)): 0.823 ± 0.127 µM; EC50 ([6]; read-out: mKOR EC50, [35S]GTPγS): 0.282 ± 0.018 µM
3 | corynantheidine | no activity | – | – | – | – | no activity | – | – | – | – | – | – | – | – | < 20 | – | 37% and 37.2 ± 4.30% | < 20 | – | – | Ki [22]: 0.083 µM; agonist action in guinea pig ileum [23]: no agonist actions; mDOR EC50 ([1]; [35S]GTPγS): no activity; maximal antinociception (ceiling effect, % MPE) ([8]; mouse, in vivo): 50%; receptor dependence of antinociception ([8]; mouse, in vivo): MOR dependent; Emax% ± SEM Gi-1 activation hKOR [9]: < 20%; fold less potent than DAMGO, [35S]GTPγS ([3]; mMOR): about 30 fold; mMOR Emax ([3]; listed as corynanthedine): 74.13 ± 1.24%; fold higher mMOR affinity than mitragynine ([4]; same binding assay): ~4 fold; Emax% ± SEM βarrestin-2 recruitment hKOR [12]: < 20%; Emax% ± SEM βarrestin-2 recruitment hMOR [13]: < 20%; fold less potent than DAMGO, Gi-1 hMOR [20]: 20 fold; mKOR EC50 ([6]; [35S]GTPγS): no activity
4 | CC[C@H]1CN2CCc3c([nH]c4cccc(OC)c34)[C@H]2C[C@@H]1/C(=C\OC)C(=O)OC [mitraciliatine] | – | – | – | – | – | – | MOR dependent and, surprisingly, independent of KOR | 6.57 ± 0.06 | 114.32 ± 2.42 | 0.269 | 6.42 ± 0.06 | 104 | 0.383 | 2.15 | < 20 | 0.073 | – | – | no significant hyperlocomotion | no respiratory depression | maximal antinociception (ceiling effect, % MPE) ([8]; i.c.v., WT mice, mitraciliatine at 100 nmol): 67%; effect on breath rate ([25]; listed as Mitraciliatine): increase in breath rates; Emax% ± SEM βarrestin-2 recruitment hKOR ([12]; normalized to U50,488H, listed as Mitraciliatine): 104.13 ± 2.57%; Ki [26]: 6.6 µM
5 | CN1CC[C@]23c4c5ccc(O)c4O[C@H]2[C@@H](O)C=C[C@H]3[C@H]1C5 [morphine, reference compound] | – | – | – | – | – | – | – | – | – | – | – | – | – | – | – | – | – | – | significant locomotor effect | significant decrease in breath rate | antinociception ED50 (and 95% C.I.) ([8]; i.c.v.): 4.77 (1.49–28.8) nmol
6 | CC[C@@H]1CN2CC[C@@]3(C(=O)Nc4ccccc43)[C@@H]2C[C@@H]1/C(=C\OC)C(=O)OC [corynoxine] | no activity | 3.08 ± 1.73 | 136.4 ± 3.3% | 0.14 µM and 0.141 µM | 1.27 ± 0.226 | no activity | MOR dependent | – | – | – | – | – | – | – | – | – | – | – | did not produce significant hyperlocomotion | no depression of breath rate | antinociception ED50 (and 95% C.I.) ([8]; i.c.v.): 3.43 (0.53–6.41) nmol; Emax ([9]; HEK-293T, read-out: Emax% ± SEM Gi-1 activation hKOR): < 20%; Ki [27]: 0.0164 µM; EC50 [3]: 0.203 ± 0.0044 µM; Emax at 1 µM ([3]; read-out: mMOR Emax, relative to DAMGO at 1000 nM): 136%; effect on breath rate ([25]; listed as Corynoxine): increase in breath rates; Emax ([12]; HEK-293T, read-out: Emax% ± SEM βarrestin-2 recruitment hKOR): < 20%; Emax ([13]; HEK-293T, read-out: Emax% ± SEM βarrestin-2 recruitment hMOR): < 20%; Emax ([15]; HEK-293T, read-out: Emax% ± SEM βarrestin-2 recruitment hDOR): < 20%; EC50 [20]: 1.63 µM; fold less potent than DAMGO, Gi-1 hMOR [20]: 58 fold; Emax ([20]; HEK-293T, read-out: Emax% ± SEM Gi-1 activation hMOR): 96.5 ± 4.69%; mKOR EC50 ([6]; [35S]GTPγS): no activity; Emax ([21]; HEK-293T, read-out: Emax% ± SEM Gi-1 activation hDOR): < 20%

Source: PMC8328003 (ACS chemical neuroscience, 2021)
